We go through 1 substance from PMC3131558, “Plitidepsin Has a Safe Cardiac Profile: A Comprehensive Analysis” (Marine Drugs, 2011).

This data set is described as follows: Population PK exposure (Cmax, AUC0-28day) by CAE category. Conditions: whole blood, mean (SD). The class given is in vivo, human. The procedure: Pharmacokinetic (PK) data available from individual clinical trials (four phase I studies and nine phase II studies; see details in Table 1) and/or simulated data using population PK analyses were correlated with the occurrence of CAEs. In the individual studies, doses ranged from 0.13 to 8.00 mg/m^2, and were administered as 1 h or 24 h infusion weekly, 3 h or 24 h infusion bi-weekly, or 1 h infusion for 5 consecutive days every 3 weeks. To evaluate the potential relationship between blood plitidepsin concentrations and QTc and HR values, a total of 90 patients who had ECGs performed during treatment with plitidepsin and PK data during first infusion were analyzed. The plitidepsin concentration at the time when the ECG had been obtained was calculated using the whole blood plitidepsin concentration at the ECG times in which they were simulated taking the individual Bayesian PK parameters of the final population PK model and considering the real treatment history of each patient. In total, 411 patients and 5585 plitidepsin concentration measurements (including 2900 blood and 2685 plasma concentrations) were pooled in the population PK analysis. An open, 3-compartment disposition model with linear elimination and linear distribution from the central compartment to peripheral compartments was used to describe the PK of plitidepsin in plasma. Between and within subject variabilities were assumed to be log-normally distributed. PK exposure parameters (maximum concentration in plasma (Cmax) and area under the curve (AUC) from day 0 to day 28) and other dose-independent PK parameters (clearance, half-life, etc.) were used to evaluate the relationship between patient PK characteristics and the appearance of CAEs. For the statistical analysis of the relationship between the exposure parameters and the development or not of a CAE, a logistic regression model was used to analyze the incidence of the event.

With plitidepsin, the “AUC0–28day” value (Irregular supraventricular tachycardia (n = 12), simulated) was 3197 (3640) h·ng/mL; the “AUC0–28day” value (Miscellaneous Cardiac Adverse Event (n = 7), simulated) is 2645 (1672) h·ng/mL; the “AUC0–28day” value (No Cardiac adverse Event (n = 375), simulated from population PK model) is given as 3374 (4336) h·ng/mL; the “AUC0–28day” value (Other myocardial injury (n = 4), simulated) is 4791 (6136) h·ng/mL; the “AUC0–28day” value (Possible ischemic related (n = 7), simulated) was 3668 (1696) h·ng/mL; the “AUC0–28day” value (Regular supraventricular tachycardia (n = 6), simulated) is recorded as 5277 (3997) h·ng/mL. In addition, the “AUC0–28day” value (Rhythm Abnormalities (n = 25), simulated) is on record as 3435 (3372) h·ng/mL.
